Biological target: PARP1 (Homo sapiens, UniProt P09874)
Assay: PARP1 biochemical DELFIA assay (auto-PARylation)
Settings: Table 1

Sequence of PARP1 (P09874 whole entry): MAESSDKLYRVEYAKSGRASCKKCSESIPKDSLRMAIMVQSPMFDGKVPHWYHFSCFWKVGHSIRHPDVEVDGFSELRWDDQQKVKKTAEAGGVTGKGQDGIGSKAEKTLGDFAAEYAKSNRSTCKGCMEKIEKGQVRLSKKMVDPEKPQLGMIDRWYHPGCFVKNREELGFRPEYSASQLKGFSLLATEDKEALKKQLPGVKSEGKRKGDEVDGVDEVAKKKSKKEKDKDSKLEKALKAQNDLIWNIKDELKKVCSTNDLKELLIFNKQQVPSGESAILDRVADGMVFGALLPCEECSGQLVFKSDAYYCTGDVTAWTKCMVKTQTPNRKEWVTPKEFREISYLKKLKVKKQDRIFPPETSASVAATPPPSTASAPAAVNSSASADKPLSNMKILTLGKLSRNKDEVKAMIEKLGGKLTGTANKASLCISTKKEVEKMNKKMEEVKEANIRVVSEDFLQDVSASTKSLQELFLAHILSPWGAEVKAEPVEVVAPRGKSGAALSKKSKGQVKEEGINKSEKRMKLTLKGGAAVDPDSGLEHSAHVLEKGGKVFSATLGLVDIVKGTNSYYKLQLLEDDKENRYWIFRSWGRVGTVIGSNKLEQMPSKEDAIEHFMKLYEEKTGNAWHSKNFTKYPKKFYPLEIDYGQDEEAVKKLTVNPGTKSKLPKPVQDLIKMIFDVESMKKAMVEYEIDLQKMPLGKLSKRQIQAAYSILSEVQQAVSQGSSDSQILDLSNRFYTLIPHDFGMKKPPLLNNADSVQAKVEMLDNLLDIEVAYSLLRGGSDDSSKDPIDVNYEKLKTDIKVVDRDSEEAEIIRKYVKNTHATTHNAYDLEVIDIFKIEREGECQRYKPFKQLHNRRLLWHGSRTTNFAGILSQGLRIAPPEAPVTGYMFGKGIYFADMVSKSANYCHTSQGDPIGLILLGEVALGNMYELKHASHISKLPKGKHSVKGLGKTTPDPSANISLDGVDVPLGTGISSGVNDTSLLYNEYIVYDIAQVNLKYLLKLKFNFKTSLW

IC50	Compound
100 to 1000 nM	CCc1cc(C2CCCN(CCC(=O)N3CCN(c4ncc(C(F)(F)F)cn4)CC3)C2)c[nH]c1=O (racemic) [Compound 22rac, 3-ethyl-5-(1-(3-oxo-3-(4-(5-(trifluoromethyl)pyrimidin-2-yl)piperazin-1-yl)propyl)piperidin-3-yl)pyridin-2(1H)-one]
100 to 1000 nM	O=C(CCN1CCCCC(c2cc(C(F)(F)F)c(=O)[nH]n2)C1)N1CCN(c2ncc(C(F)(F)F)cn2)CC1 (racemic) [Compound 12rac]
10 to 100 nM	O=C(CCN1CCCCC1c1cc(C(F)(F)F)c(=O)[nH]n1)N1CCN(c2ncc(C(F)(F)F)cn2)CC1 (racemic) [Compound 21rac]
100 to 1000 nM	O=C(CCC1CCN(c2ncc(C(F)(F)F)cn2)CC1)N1CCCC(c2cc(C(F)(F)F)c(=O)[nH]n2)C1 (single isomer, unassigned) [Compound 4a]
10 to 100 nM	CCc1cc(C2CCCN(CCC(=O)N3CCN(c4ncc(C(F)(F)F)cn4)CC3)C2)n[nH]c1=O (single isomer, unassigned) [Compound 6a, 4-ethyl-6-(1-(3-oxo-3-(4-(5-(trifluoromethyl)pyrimidin-2-yl)piperazin-1-yl)propyl)piperidin-3-yl)pyridazin-3(2H)-one]
100 to 1000 nM	O=C(CCN1CCCC(c2cc(C(F)(F)F)c(=O)[nH]n2)C1)N1CCN(c2ccc(Cl)cn2)CC1 (single isomer, unassigned) [Compound 15a]
100 to 1000 nM	O=C(CCN1CCCC(c2cc(C(F)(F)F)c(=O)[nH]n2)C1)N1CCN(c2ccc(Cl)cn2)CC1 (single isomer, unassigned) [Compound 15b]
10 to 100 nM	O=C(CN1CCCC(c2cc(C(F)(F)F)c(=O)[nH]n2)C1)N1CCN(c2ncc(C(F)(F)F)cn2)CC1 (single isomer, unassigned) [Compound 14a]
10 to 100 nM	O=C(CN1CCCC1c1cc(C(F)(F)F)c(=O)[nH]n1)N1CCN(c2ncc(C(F)(F)F)cn2)CC1 (single isomer, unassigned) [Compound 24b, 6-(1-(2-oxo-2-(4-(5-(trifluoromethyl)pyrimidin-2-yl)piperazin-1-yl)ethyl)pyrrolidin-2-yl)-4-(trifluoromethyl)pyridazin-3(2H)-one]
100 to 1000 nM	O=C(CN1CCCC(c2cc(C(F)(F)F)c(=O)[nH]n2)C1)N1CCN(c2ncc(C(F)(F)F)cn2)CC1 (single isomer, unassigned) [Compound 14b]
100 to 1000 nM	O=C(CCN1CCN(c2ncc(C(F)(F)F)cn2)CC1)N1CCCC(c2cc(C(F)(F)F)c(=O)[nH]n2)C1 (single isomer, unassigned) [Compound 9a]

Same assay, conditions: Table 1A

IC50	Compound
≤ 10 nM	O=C(CN1CCCC1c1cc(C(F)(F)F)c(=O)[nH]n1)N1CCN(c2ncc(OC(F)(F)F)cn2)CC1 (single isomer, unassigned) [Compound 72b]
100 to 1000 nM	CNC(=O)c1ccc(N2CCN(C(=O)CN3CCCC3c3cc(C(F)(F)F)c(=O)[nH]n3)CC2)nc1 (single isomer, unassigned) [Compound 55b]
100 to 1000 nM	O=C(CN1CCCCC1c1cc(C(F)(F)F)c(=O)[nH]n1)N1CCN(c2ncc(C(F)(F)F)cn2)CC1 (single isomer, unassigned) [Compound 66a]
100 to 1000 nM	O=C(CN1CCCC1c1c[nH]c(=O)c(C(F)(F)F)c1)N1CCN(c2ncc(C(F)(F)F)cn2)CC1 (racemic) [Compound 60rac, 5-(1-(2-oxo-2-(4-(5-(trifluoromethyl)pyrimidin-2-yl)piperazin-1-yl)ethyl)pyrrolidin-2-yl)-3-(trifluoromethyl)pyridin-2(1H)-one]
1000 to 10000 nM	CN(c1ncc(C(F)(F)F)cn1)C1CCN(C(=O)CN2CCCC2c2cc(C(F)(F)F)c(=O)[nH]n2)CC1 (single isomer, unassigned) [Compound 107a]
1000 to 10000 nM	O=C(CN1CCCC1c1cc(C(F)(F)F)c(=O)[nH]n1)N1CCN(c2ncc(Cl)cc2Cl)CC1 (single isomer, unassigned) [Compound 125b]
1000 to 10000 nM	N#Cc1cc(C2CCCN2CC(=O)N2CCN(c3ncc(C(F)(F)F)cn3)CC2)n[nH]c1=O (single isomer, unassigned) [Compound 98b, 3-oxo-6-(1-(2-oxo-2-(4-(5-(trifluoromethyl)pyrimidin-2-yl)piperazin-1-yl)ethyl)pyrrolidin-2-yl)-2,3-dihydropyridazine-4-carbonitrile]
1000 to 10000 nM	O=C(CN1CCCC1c1cc(C(F)(F)F)c(=O)[nH]n1)N1CCN(c2ncc(F)cc2C(F)(F)F)CC1 (single isomer, unassigned) [Compound 120a]
1000 to 10000 nM	O=C(CN1CCCC1c1n[nH]c(=O)c2ccccc12)N1CCN(c2ncc(C(F)(F)F)cn2)CC1 (single isomer, unassigned) [Compound 38b, 4-(1-(2-oxo-2-(4-(5-(trifluoromethyl)pyrimidin-2-yl)piperazin-1-yl)ethyl)pyrrolidin-2-yl)phthalazin-1(2H)-one]
10 to 100 nM	O=C(CN1CCCC1c1cc(C(F)(F)F)c(=O)[nH]n1)N1CCN(c2ncc(C3CC3)cn2)CC1 (single isomer, unassigned) [Compound 69a]
10 to 100 nM	N#Cc1ccc(N2CCN(C(=O)CN3CCCC3c3cc(C(F)(F)F)c(=O)[nH]n3)CC2)cc1 (single isomer, unassigned) [Compound 71b]
≤ 10 nM	O=C(CN1CCCC1c1cc(C(F)(F)F)c(=O)[nH]n1)N1CCN(c2nc3ccc(Cl)cc3o2)CC1 (single isomer, unassigned) [Compound 85a]
1000 to 10000 nM	CN(C(=O)CN1CCCC1c1cc(C(F)(F)F)c(=O)[nH]n1)C1CCN(c2ncc(C(F)(F)F)cn2)CC1 (single isomer, unassigned) [Compound 34b]
1000 to 10000 nM	N#Cc1cc(C2CCCN2CC(=O)N2CCN(c3nc4cc(Cl)ccc4o3)CC2)n[nH]c1=O (single isomer, unassigned) [Compound 121b]
1000 to 10000 nM	O=C(CN1CCCC1c1cc(C(F)(F)F)c(=O)[nH]n1)N1CCN(c2ncc(F)cc2Cl)CC1 (single isomer, unassigned) [Compound 116b]
100 to 1000 nM	CNC(=O)c1ccc(N2CCN(C(=O)CN3CCC3c3cc(C(F)(F)F)c(=O)[nH]n3)CC2)cn1 (racemic) [Compound 53rac]
1000 to 10000 nM	Cc1[nH]c(=O)c(C(F)(F)F)cc1C1CCCN1CC(=O)N1CCN(c2ncc(C(F)(F)F)cn2)CC1 (single isomer, unassigned) [Compound 102b, 6-methyl-5-(1-(2-oxo-2-(4-(5-(trifluoromethyl)pyrimidin-2-yl)piperazin-1-yl)ethyl)pyrrolidin-2-yl)-3-(trifluoromethyl)pyridin-2(1H)-one]
100 to 1000 nM	O=C(CN1CCCC1c1cc(C(F)(F)F)c(=O)[nH]n1)N1CCC2(CC1)CN(c1ncc(C(F)(F)F)cn1)C2 (single isomer, unassigned) [Compound 101b]
1000 to 10000 nM	CN(c1ncc(C(F)(F)F)cn1)C1CN(C(=O)CN2CCCC2c2cc(C(F)(F)F)c(=O)[nH]n2)C1 (single isomer, unassigned) [Compound 127b]
1000 to 10000 nM	O=C(CN1CCCC1c1cc(C(F)(F)F)c(=O)[nH]n1)N1CC2(C1)CN(c1ncc(C(F)(F)F)cn1)C2 (single isomer, unassigned) [Compound 106b]
1000 to 10000 nM	O=C(CN1CCCC1c1cc(C(F)(F)F)c(=O)[nH]n1)N1CCC(c2ncc(C(F)(F)F)cn2)CC1 (single isomer, unassigned) [Compound 70a]
1000 to 10000 nM	O=C(CN1CCCC1c1cc(C(F)(F)F)c(=O)[nH]n1)N1CCN(c2ncc(Cl)cn2)CC1 (single isomer, unassigned) [Compound 35b]

— patent US20260193238A1, “PHARMACEUTICAL COMPOUNDS AS PARP7 AND/OR PARP1 INHIBITORS” (Duke Street Bio Limited, priority 2022, published 2026)
